Laboratory results reported in PMC3706879, “The neurotrophic compound J147 reverses cognitive impairment in aged Alzheimer's disease mice” (Alzheimer's Research & Therapy, 2013).

Tests used:
[1] = target: T1, monoamine oxidase B (MAO B) (Homo sapiens, UniProt P27338); assay: monoamine oxidase B assay (MDS Pharma Services); format: biochemical
T1 sequence (P27338 1-520): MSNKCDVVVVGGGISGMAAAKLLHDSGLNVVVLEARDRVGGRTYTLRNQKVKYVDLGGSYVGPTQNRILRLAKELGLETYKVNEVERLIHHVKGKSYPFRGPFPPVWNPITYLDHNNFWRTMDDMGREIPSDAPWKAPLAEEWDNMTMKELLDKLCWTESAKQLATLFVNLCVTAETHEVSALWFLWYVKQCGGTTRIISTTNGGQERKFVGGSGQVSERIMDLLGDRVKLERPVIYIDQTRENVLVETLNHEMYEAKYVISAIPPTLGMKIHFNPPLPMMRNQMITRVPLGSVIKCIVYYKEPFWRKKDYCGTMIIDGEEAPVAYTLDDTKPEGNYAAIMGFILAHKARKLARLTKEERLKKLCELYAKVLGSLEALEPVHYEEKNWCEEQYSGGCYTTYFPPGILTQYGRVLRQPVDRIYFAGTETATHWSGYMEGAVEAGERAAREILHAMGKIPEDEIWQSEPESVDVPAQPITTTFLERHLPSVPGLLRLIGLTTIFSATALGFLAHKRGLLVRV
Protocol: All screening was done at 10 μM J147 by various contract research organizations (CROs), including MDS Pharma Services (King of Prussia, PA, USA), Ricerca, now Panlabs (Concord, OH, USA), Ambit (La Jolla, CA, USA), Caliper (Hopkinton, MA, USA) and NovaScreen Biosciences (Hanover, MD, USA) by standard protocols described in their catalogs.

[2] = tested on: huAPP/PS1 mice; assay: fear conditioning assay in aged huAPP/PS1 mice; format: in vivo; conditions: 200 ppm in food for three months
Protocol: The APPswe/PS1ΔE9 transgenic mice have been previously characterized. The line 85 mice carry two transgenes, the mouse/human chimeric APP/Swe, linked to Swedish FAD and human PS1ΔE9. At 20 months of age both male and female transgenic mice were fed a high fat diet (Harlan Tekland, Madison, WI, USA) with and without J147 (200 ppm, 10 mg/kg/day). Treatment continued for three months and was followed by behavior testing and sacrifice of mice for tissue harvesting. […] (Data not shown).
Fear conditioning to either a cue or a context represents a form of associative learning. The read-out that is measured in contextual and cued fear conditioning is a freezing response that occurs following the pairing of an unconditioned stimulus (US), such as a foot shock, with a conditioned stimulus (CS), such as a particular context or cue (tone). The mouse will freeze if it remembers and associates that environment with the aversive stimulus. […] On Day 2, the time spent freezing is measured over the entire time in the chamber. […] The percentage of time spent freezing by each mouse is averaged per group and then groups can be compared and P-values calculated to determine statistical significance. On Day 3, the percentage of time spent freezing during the two tones is averaged per group, and then groups can be compared and P-values calculated to determine statistical significance. […]

For `COc1cccc(/C=N/N(C(=O)C(F)(F)F)c2ccc(C)cc2C)c1` [J147, (E)-N-(2,4-dimethylphenyl)-2,2,2-trifluoro-N'-(3methoxybenzyli-dene) acetohydrazide], the “inhibition, monoamine oxidase B” value ([1]; 10 μM J147) was “greater than 60%”, the EC50 ([1]; dose response, re-assay after screening) was 1.88 µM and the “contextual fear conditioning, freezing Day 2” value [2] was “rescued”. The “cued fear conditioning, freezing Day 3” value [2] was “no significant difference between the groups”.
